In the PolyMetriX glass transition set:

*c1c(C)cc(C(c2cc(C(F)(F)F)cc(C(F)(F)F)c2)c2cc(C)c(N3C(=O)c4ccc(-c5ccc6c(c5)C(=O)N(*)C6=O)cc4C3=O)c(C)c2)cc1C (repeat unit)
glass transition temperature: 317.40 °C

*CCCCCCCCCCCCCCc1ccc(-c2c(-c3ccccc3)cc(-c3cccc(-c4cc(-c5ccccc5)c(-c5ccc(*)cc5)c(-c5ccccc5)c4-c4ccccc4)c3)c(-c3ccccc3)c2-c2ccccc2)cc1 (repeat unit)
glass transition temperature: 160.00 °C

*c1ccc2c(c1)C(=O)N(c1ccc(Oc3ccc(C(=O)c4cccc(C(=O)c5ccc(Oc6ccc(N7C(=O)c8ccc(C(*)(C(F)(F)F)C(F)(F)F)cc8C7=O)cc6C(F)(F)F)cc5)n4)cc3)c(C(F)(F)F)c1)C2=O (repeat unit)
glass transition temperature: 206.40 °C

*CC(*)c1ccc(OCC)cc1 (repeat unit)
glass transition temperature: 86.00 °C

*c1ccc(Oc2ccc(-c3ccc(Oc4ccc(N5C(=O)c6ccc(Oc7cccc(Oc8ccc9c(c8)C(=O)N(*)C9=O)c7)cc6C5=O)cc4)cc3)cc2)cc1 (repeat unit)
glass transition temperature: 200.00 °C

*CC(*)C(=O)Oc1ccc(Cl)cc1 (repeat unit)
glass transition temperature: 330.00 °C

*c1ccc(C(=O)c2ccc(Oc3ccc(-c4nn(*)c(=O)c5ccccc45)cc3)cc2)cc1 (repeat unit)
glass transition temperature: 263.00 °C

*Oc1ccc(Oc2ccc(C(=O)c3ccc(C(=O)c4ccc(*)cc4)cc3)cc2)cc1-c1ccc(S(=O)(=O)O)cc1 (repeat unit)
glass transition temperature: 174.00 °C

*C(=O)c1ccc2nc(-c3ccccc3)c(-c3ccc(N4C(=O)c5ccc(C(=O)c6ccc7c(c6)C(=O)N(c6ccc(-c8nc9cc(*)ccc9nc8-c8ccccc8)cc6)C7=O)cc5C4=O)cc3)nc2c1 (repeat unit)
glass transition temperature: 255.00 °C

*CCCOCCCOC(=O)c1ccc(-c2ccc(C(=O)O*)cc2)cc1 (repeat unit)
glass transition temperature: 18.50 °C

*CC(COC(=O)O*)OCCOc1ccc(/C=C/c2ccc([N+](=O)[O-])cc2)cc1 (repeat unit)
glass transition temperature: 53.00 °C

*CCCCCCCN1C(=O)c2ccc(C(c3ccc4c(c3)C(=O)N(*)C4=O)(C(F)(F)F)C(F)(F)F)cc2C1=O (repeat unit)
glass transition temperature: 165.00 °C

*Oc1ccc(C(C)(C)c2ccc(OC(=O)SCCCCCCSC(*)=O)cc2)cc1 (repeat unit)
glass transition temperature: 58.00 °C

*[Si](*)(CCCC)CCCCC (repeat unit)
glass transition temperature: -26.00 °C

*CCCCCCCCCCOc1ccc(/C=C/c2ccc(OCCCCCCCCCCOP(=O)(O*)OCCCCCCCCCCOc3ccc(/N=N/c4ccc(OC)cc4)cc3)cc2)cc1 (repeat unit)
glass transition temperature: 58.00 °C

*Oc1ccc(-c2ccc(-c3ccc(Oc4ccc(C(c5ccc(*)cc5)(C(F)(F)F)C(F)(F)F)cc4)c(C(F)(F)F)c3)cc2)cc1C(F)(F)F (repeat unit)
glass transition temperature: 207.50 °C

*CC(*)(C)C(=O)OCCCCC(F)(F)C(F)(F)C(F)(F)C(F)(F)F (repeat unit)
glass transition temperature: 23.00 °C

*c1ccc(C(=O)c2ccc(C(=O)c3ccc(S(*)(=O)=O)cc3)cc2)cc1 (repeat unit)
glass transition temperature: 213.50 °C

*c1nnc(-c2sc(-c3nnc(-c4cc(OCCCCCCCC)c(*)cc4OCCCCCCCC)o3)cc2CCCCCCCC)o1 (repeat unit)
glass transition temperature: 124.30 °C

*C(=O)Nc1ccc(NC(=O)c2ccc3c(c2)C(=O)N(c2c(C)cc(C)c(N4C(=O)c5ccc(*)cc5C4=O)c2C)C3=O)cc1 (repeat unit)
glass transition temperature: 327.00 °C

*c1ccc(Oc2ccc(C(=O)c3ccc4cc(C(=O)c5ccc(Oc6ccc(-c7nc(-c8ccc(-c9nc(*)c(-c%10ccccc%10)[nH]9)cc8)[nH]c7-c7ccccc7)cc6)cc5)ccc4c3)cc2)cc1 (repeat unit)
glass transition temperature: 281.00 °C

*C(=O)c1ccc2c(c1)C(=O)N(c1ccc(C(=O)Nc3ccc(Oc4ccc(NC(=O)c5ccc(NC(=O)Nc6ccc(Cc7ccc(NC(=O)Nc8ccc(C(=O)Nc9ccc(Oc%10ccc(NC(=O)c%11ccc(N%12C(=O)c%13ccc(*)cc%13C%12=O)cc%11)cc%10)cc9)cc8)cc7)cc6)cc5)cc4)cc3)cc1)C2=O (repeat unit)
glass transition temperature: 229.00 °C

*C(=O)c1ccc2c(c1)C(=O)N(c1ccc(CP(=O)(OCC)OCC)c(N3C(=O)c4ccc(*)cc4C3=O)c1)C2=O (repeat unit)
glass transition temperature: 218.00 °C

*O[Si](*)(C)CCCCCCCCCCCOc1ccc(/C=C/c2ccc(OC)cc2)cc1 (repeat unit)
glass transition temperature: 55.00 °C

*CC(CCCC)COC(=O)NC(=O)c1cccc(C(=O)NC(=O)O*)c1 (repeat unit)
glass transition temperature: 64.00 °C

*CCCCCCCCCCCCN1C(=O)c2ccc(-c3ccc(-c4ccc5c(c4)C(=O)N(*)C5=O)cc3)cc2C1=O (repeat unit)
glass transition temperature: 86.00 °C

*c1ccc2c(c1)C(=O)N(c1cccc(C(F)(F)C(F)(F)C(F)(F)c3cccc(N4C(=O)c5ccc(C(F)(F)C(F)(F)C(F)(F)C(*)(F)F)cc5C4=O)c3)c1)C2=O (repeat unit)
glass transition temperature: 159.00 °C

*c1ccc2c(c1)C(=O)N(c1ccc(C(=O)Nc3ccc(Oc4cccc(Oc5ccc(NC(=O)c6ccc(N7C(=O)c8ccc(C(*)(C(F)(F)F)C(F)(F)F)cc8C7=O)cc6)cc5)c4)cc3)cc1)C2=O (repeat unit)
glass transition temperature: 286.00 °C

*OP(=O)(Oc1ccc(C(C)(C)c2ccc(*)cc2)cc1)OC1CCCCC1 (repeat unit)
glass transition temperature: 86.00 °C

*Oc1ccc(CC(NC(=O)CCc2ccc(OC(=O)COCC(*)=O)cc2)C(=O)OC)cc1 (repeat unit)
glass transition temperature: 82.00 °C

*CNC(=O)CCCCCCCCC(=O)NCC1COC(*)CO1 (repeat unit)
glass transition temperature: 73.00 °C

*c1ccc(Oc2ccc(N3C(=O)c4ccc(Oc5cccc6c5C(=O)N(*)C6=O)cc4C3=O)cc2)cc1 (repeat unit)
glass transition temperature: 285.00 °C

*C(=O)c1ccc2c(c1)C(=O)N(CC1(C)CC(N3C(=O)c4ccc(*)cc4C3=O)CC(C)(C)C1)C2=O (repeat unit)
glass transition temperature: 275.00 °C

*C(=O)OCCOCCOCCOCCOC(=O)c1ccc(N2C(=O)c3ccc(*)cc3C2=O)cc1 (repeat unit)
glass transition temperature: 52.00 °C

*C(=O)NCCN(CCNC(=O)c1cccc(N2C(=O)c3ccc(*)cc3C2=O)c1)c1ccc(/C=C/c2ccc([N+](=O)[O-])cc2)cc1 (repeat unit)
glass transition temperature: 178.00 °C

*C(=O)OCCCSCCCCSCCCOC(=O)c1ccc(N2C(=O)c3ccc(*)cc3C2=O)cc1 (repeat unit)
glass transition temperature: 39.00 °C

*CCCC1(CCCNC(=O)c2ccccc2-c2ccccc2C(=O)N*)c2ccccc2-c2ccccc21 (repeat unit)
glass transition temperature: 165.00 °C

*CC(*)C(=O)OCCCOCC (repeat unit)
glass transition temperature: -61.50 °C

*C(=O)OCCN(CCOC(=O)c1ccc2c(c1)C(=O)N(c1c(C)cc(Cc3cc(C)c(N4C(=O)c5ccc(*)cc5C4=O)c(C)c3)cc1C)C2=O)c1ccc(/N=N/c2ccc([N+](=O)[O-])cc2C#N)cc1 (repeat unit)
glass transition temperature: 216.00 °C

*Nc1cccc2c(NC(=O)c3ccc(C(*)=O)cc3)cccc12 (repeat unit)
glass transition temperature: 305.00 °C

*c1ccc(-c2cnc3cc4nc(*)cnc4cc3n2)cc1 (repeat unit)
glass transition temperature: 392.00 °C

*O[Si](C)(Oc1ccc(C(C)(C)c2ccc(*)cc2)cc1)c1ccccc1 (repeat unit)
glass transition temperature: 58.00 °C

*Oc1ccc(C(=O)c2cccc(-c3cccc(C(=O)c4ccc(*)cc4)c3)c2)cc1 (repeat unit)
glass transition temperature: 123.00 °C

*CC(O)COc1ccc(C(C)(c2ccccc2)c2ccc(O*)cc2)cc1 (repeat unit)
glass transition temperature: 115.00 °C

*Oc1ccc(NC(=O)Nc2cc(NC(=O)Nc3ccc(*)c(-c4ccc(Oc5ccccc5)cc4)c3)ccc2C)cc1-c1ccc(Oc2ccccc2)cc1 (repeat unit)
glass transition temperature: 279.00 °C

*Oc1ccc(CC(NC(=O)CCc2ccc(OC(=O)CCCCCCCCC(*)=O)cc2)C(=O)OC)cc1 (repeat unit)
glass transition temperature: 47.00 °C

*c1cccc(P(C)(=O)c2cccc(N3C(=O)c4ccc(NC(=O)OCCOc5ccc(P(=O)(c6ccccc6)c6ccc(OCCOC(=O)Nc7ccc8c(c7)C(=O)N(*)C8=O)cc6)cc5)cc4C3=O)c2)c1 (repeat unit)
glass transition temperature: 201.00 °C

*c1cc(N2C(=O)c3ccc(Oc4cccc5c(Oc6ccc7c(c6)C(=O)N(*)C7=O)cccc45)cc3C2=O)cc(C(F)(F)F)c1 (repeat unit)
glass transition temperature: 250.00 °C

*N=P(N=P(N=S(*)(=O)NCCC)(NCCC)NCCC)(NCCC)NCCC (repeat unit)
glass transition temperature: 6.00 °C

*/C(C#N)=C/c1cc(OCCCCCCCC)c(/C=C(\C#N)c2cc(OCCCCCCCC)c(*)cc2OC)cc1OC (repeat unit)
glass transition temperature: 174.00 °C

*Oc1ccc(Oc2ccc(C(=O)c3ccc(C(=O)c4ccc(*)cc4)cc3)cc2)cc1-c1ccccc1 (repeat unit)
glass transition temperature: 166.00 °C

*c1ccc(Oc2cccc(Oc3ccc(N4C(=O)c5cccc(Oc6ccc(Sc7ccc(Oc8cccc9c8C(=O)N(*)C9=O)cc7)cc6)c5C4=O)cc3)c2)cc1 (repeat unit)
glass transition temperature: 202.00 °C

*COC(=O)NCc1ccc(CNC(=O)OCc2ccc(*)o2)o1 (repeat unit)
glass transition temperature: 75.00 °C

*/C(=C/c1ccc(/C=C(\c2ccccc2)c2ccc(-c3ccc(*)cc3)cc2)cc1)c1ccccc1 (repeat unit)
glass transition temperature: 220.00 °C

*CC(*)(C)C(=O)OCCn1c2ccccc2c2cc(/N=N/c3ccc([N+](=O)[O-])cc3)ccc21 (repeat unit)
glass transition temperature: 164.00 °C

*CC(*)c1ccc(COCCCCCC)cc1 (repeat unit)
glass transition temperature: -20.00 °C

*C(=O)c1ccc(Oc2ccc(C3(c4ccc(Oc5ccc(*)s5)cc4)c4ccccc4-c4ccccc43)cc2)cc1 (repeat unit)
glass transition temperature: 195.00 °C

*O[Si](*)(C)CCCOc1ccc(C(=O)OCCOc2ccc(C(=O)OC3CCC4(C)C(=CCC5C4CCC4(C)C(C(C)CCCC(C)C)CCC54)C3)cc2)cc1 (repeat unit)
glass transition temperature: 42.00 °C

*Oc1ccc(C(C)(C)c2ccc(Oc3ccc(C(=O)Nc4ccc(-c5ccc(NC(=O)c6ccc(*)cc6)cc5C(F)(F)F)c(C(F)(F)F)c4)cc3)cc2)cc1 (repeat unit)
glass transition temperature: 250.00 °C

*OP(=O)(Oc1ccc(Br)cc1)Oc1c(C)cc(S(=O)(=O)c2cc(C)c(*)c(C)c2)cc1C (repeat unit)
glass transition temperature: 162.00 °C
